For assay [1], the system named is Beet Armyworm (BAW) (Spodoptera exigua). Description: Bioassay on beet armyworm (BAW), 128-well diet tray assay. The assay is classed as in vivo. As to conditions: Spodoptera exigua; Beet armyworm, 50 μg/cm^2; read-out: % Mortality BAW 50 μg/cm^2. In outline: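 Second-instar Spodoptera exigua larvae, one to five per well, on artificial diet treated with 50 μg/cm^2 compound in 90:10 acetone-water and dried, eight wells per compound. Held at 25 °C, 14:10 light-dark for five to seven days; percent mortality averaged over wells.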

Assay [2] has as its system Corn Earworm (CEW) (Helicoverpa zea). The assay is described as follows: Bioassay on corn earworm (CEW), 128-well diet tray assay. Format: in vivo. The note with it: Helicoverpa zea; Corn earworm, 50 μg/cm^2; read-out: % Mortality CEW 50 μg/cm^2. Put shortly: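 Second-instar Helicoverpa zea larvae (one to five per well) placed on artificial diet treated with 50 μg/cm^2 compound in 90:10 acetone-water, dried, eight wells per compound. Held at 25 °C, 14:10 light-dark, five to seven days; percent mortality averaged over wells.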

In the case of `COc1ccccc1N1CCCS/C1=N\N=C\c1ccc(-c2ncn(-c3ccc(OC(F)(F)F)cc3)n2)cc1` [Compound 191C], the pest or weed control at 50 µg/cm2, 50 µg/cm2 in assay [1] and in assay [2] was 50 to 100% throughout.

Turning to `Cc1cccc(Cl)c1N1CCCS/C1=N\N=C\c1ccc(-c2ncn(-c3ccc(OC(F)(F)F)cc3)n2)cc1` [Compound 196C], the pest or weed control at 50 µg/cm2, 50 µg/cm2 in assay [1] and in assay [2] was 50 to 100% in each case.

With `CC(C)=Cc1ccccc1N1CCCS/C1=N\N=C\c1ccc(-c2ncn(-c3ccc(OC(F)(F)F)cc3)n2)cc1` [Compound 197C], the pest or weed control at 50 µg/cm2, 50 µg/cm2 in assay [1] and in assay [2] was 50 to 100% each time.

Regarding `Cc1cccnc1N1CCCS/C1=N\N=C\c1ccc(-c2ncn(-c3ccc(OC(F)(F)F)cc3)n2)cc1` [Compound 198C], the pest or weed control at 50 µg/cm2, 50 µg/cm2 in assay [1] and in assay [2] was 50 to 100% in each case.

With `FC(F)(F)Oc1ccc(-n2cnc(-c3ccc(/C=N/N=C4\SCCCN4c4ccccc4OC(F)(F)F)cc3)n2)cc1` [Compound 199C], the pest or weed control at 50 µg/cm2, 50 µg/cm2 in assay [1] and in assay [2] was 50 to 100% throughout.

With `FC(F)Oc1ccccc1N1CCCS/C1=N\N=C\c1ccc(-c2ncn(-c3ccc(OC(F)(F)F)cc3)n2)cc1` [Compound 200C], the pest or weed control at 50 µg/cm2, 50 µg/cm2 in assay [1] and in assay [2] was 50 to 100% in each case.

On to `COc1cccc(N2CCCS/C2=N\N=C\c2ccc(-c3ncn(-c4ccc(OC(F)(F)F)cc4)n3)cc2)c1` [Compound 206C], for which the pest or weed control at 50 µg/cm2, 50 µg/cm2 in assay [1] and in assay [2] was 50 to 100% each time.

As to `CCOc1ccccc1N1CCCS/C1=N\N=C\c1ccc(-c2ncn(-c3ccc(OC(F)(F)F)cc3)n2)cc1` [Compound 208C], the pest or weed control at 50 µg/cm2, 50 µg/cm2 in assay [1] and in assay [2] was 50 to 100% in each case.

For `CC(C)(C)c1ccccc1N1CCCS/C1=N\N=C\c1ccc(-c2ncn(-c3ccc(OC(F)(F)F)cc3)n2)cc1` [Compound 210C], the pest or weed control at 50 µg/cm2, 50 µg/cm2 in assay [1] and in assay [2] was 50 to 100% each time.

Regarding `Cc1cccc(C)c1N1CCCCS/C1=N\N=C\c1ccc(-c2ncn(-c3ccc(OC(F)(F)F)cc3)n2)cc1` [Compound 211C], the pest or weed control at 50 µg/cm2, 50 µg/cm2 in assay [1] and in assay [2] was 50 to 100% each time.

Regarding `CC(C)c1ccccc1N1CCCCS/C1=N\N=C\c1ccc(-c2ncn(-c3ccc(OC(F)(F)F)cc3)n2)cc1` [Compound 212C], the pest or weed control at 50 µg/cm2, 50 µg/cm2 in assay [1] and in assay [2] was 50 to 100% throughout.

Turning to `CC1CS/C(=N\N=C\c2ccc(-c3ncn(-c4ccc(OC(F)(F)F)cc4)n3)cc2)N(c2ccccc2OC(F)(F)F)C1` (centres unmarked) [Compound 214C], the pest or weed control at 50 µg/cm2, 50 µg/cm2 in assay [1] and in assay [2] was 50 to 100% each time.

For the compound `CC1CS/C(=N\N=C\c2ccc(-c3ncn(-c4ccc(OC(F)(F)F)cc4)n3)cc2)N(c2c(Cl)cccc2C(F)(F)F)C1` (centres unmarked) [Compound 215C], the pest or weed control at 50 µg/cm2, 50 µg/cm2 in assay [1] and in assay [2] was 50 to 100% throughout.

Consider `CC1CCS/C(=N\N=C\c2ccc(-c3ncn(-c4ccc(OC(F)(F)F)cc4)n3)cc2)N1c1ccccc1OC(F)(F)F` (centres unmarked) [Compound 216C], for which the pest or weed control at 50 µg/cm2, 50 µg/cm2 in assay [1] and in assay [2] was 50 to 100% throughout.

Take `CC1CCS/C(=N\N=C\c2ccc(-c3ncn(-c4ccc(OC(F)(F)F)cc4)n3)cc2)N1c1c(Cl)cccc1C(F)(F)F` (centres unmarked) [Compound 217C]: the pest or weed control at 50 µg/cm2, 50 µg/cm2 in assay [1] and in assay [2] was 50 to 100% throughout.

On to `Cc1cc(C)c(N2/C(=N/N=C/c3ccc(-c4ncn(-c5ccc(OC(F)(F)F)cc5)n4)cc3)SCCC2C)c(C)c1` (centres unmarked) [Compound 218C], for which the pest or weed control at 50 µg/cm2, 50 µg/cm2 in assay [1] and in assay [2] was 50 to 100% each time.

Consider `COc1ccc(N2/C(=N/N=C/c3ccc(-c4ncn(-c5ccc(OC(F)(F)F)cc5)n4)cc3)SCCC2C)c(C)c1` (centres unmarked) [Compound 219C], for which the pest or weed control at 50 µg/cm2, 50 µg/cm2 in assay [1] and in assay [2] was 50 to 100% in each case.

`CCC(C)c1ccccc1N1/C(=N/N=C/c2ccc(-c3ncn(-c4ccc(OC(F)(F)F)cc4)n3)cc2)SCCC1C` (centres unmarked) [Compound 220C]: the pest or weed control at 50 µg/cm2, 50 µg/cm2 in assay [1] and in assay [2] was 50 to 100% throughout.

With `CC1CCS/C(=N\N=C\c2ccc(-c3ncn(-c4ccc(OC(F)(F)F)cc4)n3)cc2)N1c1ccccc1OC(F)F` (centres unmarked) [Compound 221C], the pest or weed control at 50 µg/cm2, 50 µg/cm2 in assay [1] and in assay [2] was 50 to 100% in each case.

As to `CC1CCS/C(=N\N=C\c2ccc(-c3ncn(-c4ccc(OC(F)(F)F)cc4)n3)cc2)N1c1ccccc1C(C)(C)C` (centres unmarked) [Compound 222C], the pest or weed control at 50 µg/cm2, 50 µg/cm2 in assay [1] and in assay [2] was 50 to 100% throughout.

Regarding `Cc1cccc(C)c1N1C(=O)CCS/C1=N\N=C\c1ccc(-c2ncn(-c3ccc(OC(F)(F)F)cc3)n2)cc1` [Compound 223C], the pest or weed control at 50 µg/cm2, 50 µg/cm2 in assay [1] and in assay [2] was 50 to 100% throughout.

On to `CCc1cccc(C)c1N1C(=O)CCS/C1=N\N=C\c1ccc(-c2ncn(-c3ccc(OC(F)(F)F)cc3)n2)cc1` [Compound 225C], for which the pest or weed control at 50 µg/cm2, 50 µg/cm2 in assay [1] and in assay [2] was 50 to 100% throughout.

On to `O=C1CCS/C(=N\N=C\c2ccc(-c3ncn(-c4ccc(OC(F)(F)F)cc4)n3)cc2)N1c1c(F)cccc1F` [Compound 226C], for which the pest or weed control at 50 µg/cm2, 50 µg/cm2 in assay [1] and in assay [2] was 50 to 100% throughout.

Consider `Cc1cccc(Cl)c1N1C(=O)CCS/C1=N\N=C\c1ccc(-c2ncn(-c3ccc(OC(F)(F)F)cc3)n2)cc1` [Compound 227C], for which the pest or weed control at 50 µg/cm2, 50 µg/cm2 in assay [1] and in assay [2] was 50 to 100% each time.

In the case of `O=C1CCS/C(=N\N=C\c2ccc(-c3ncn(-c4ccc(OC(F)(F)F)cc4)n3)cc2)N1c1c(Cl)cccc1C(F)(F)F` [Compound 228C], the pest or weed control at 50 µg/cm2, 50 µg/cm2 in assay [1] and in assay [2] was 50 to 100% in each case.

As for `CC(F)(F)Oc1ccccc1N1C(=O)CCS/C1=N\N=C\c1ccc(-c2ncn(-c3ccc(OC(F)(F)F)cc3)n2)cc1` [Compound 229C], the pest or weed control at 50 µg/cm2, 50 µg/cm2 in assay [1] and in assay [2] was 50 to 100% each time.

Take `CCC(C)c1ccccc1N1C(=O)CCS/C1=N\N=C\c1ccc(-c2ncn(-c3ccc(OC(F)(F)F)cc3)n2)cc1` (centres unmarked) [Compound 230C]: the pest or weed control at 50 µg/cm2, 50 µg/cm2 in assay [1] and in assay [2] was 50 to 100% each time.

Regarding `COc1ccc(N2C(=O)CCS/C2=N\N=C\c2ccc(-c3ncn(-c4ccc(OC(F)(F)F)cc4)n3)cc2)c(C)c1` [Compound 231C], the pest or weed control at 50 µg/cm2, 50 µg/cm2 in assay [1] and in assay [2] was 50 to 100% throughout.

Turning to `CC(C)(C)c1ccccc1N1C(=O)CCS/C1=N\N=C\c1ccc(-c2ncn(-c3ccc(OC(F)(F)F)cc3)n2)cc1` [Compound 232C], the pest or weed control at 50 µg/cm2, 50 µg/cm2 in assay [1] and in assay [2] was 50 to 100% in each case.

Consider `O=C1CCS/C(=N\N=C\c2ccc(-c3ncn(-c4ccc(OC(F)(F)F)cc4)n3)cc2)N1c1ccccc1OC(F)F` [Compound 233C], for which the pest or weed control at 50 µg/cm2, 50 µg/cm2 in assay [1] and in assay [2] was 50 to 100% throughout.

Take `Cc1cccc(C(C)C)c1N1C(=O)CS/C1=N\N=C\c1ccc(-c2ncn(-c3ccc(OC(F)(F)F)cc3)n2)cc1` [Compound 238C]: the pest or weed control at 50 µg/cm2, 50 µg/cm2 in assay [1] and in assay [2] was 50 to 100% throughout.

Turning to `CC(C)c1ccccc1N1CS/C1=N\N=C\c1ccc(-c2ncn(-c3ccc(OC(F)(F)F)cc3)n2)cc1` [Compound 240C], the pest or weed control at 50 µg/cm2, 50 µg/cm2 in assay [1] and in assay [2] was 50 to 100% throughout.

In the case of `Cc1cccc(C)c1N1CS/C1=N\N=C\c1ccc(-c2ncn(-c3ccc(OC(F)(F)F)cc3)n2)cc1` [Compound 241C], the pest or weed control at 50 µg/cm2, 50 µg/cm2 in assay [1] and in assay [2] was 50 to 100% in each case.

As for `COc1cc(C)c(N2CS/C2=N\N=C\c2ccc(-c3ncn(-c4ccc(OC(F)(F)F)cc4)n3)cc2)c(C)c1` [Compound 242C], the pest or weed control at 50 µg/cm2, 50 µg/cm2 in assay [1] and in assay [2] was 50 to 100% in each case.

Regarding `CCc1cccc(C)c1N1CS/C1=N\N=C\c1ccc(-c2ncn(-c3ccc(OC(F)(F)F)cc3)n2)cc1` [Compound 243C], the pest or weed control at 50 µg/cm2, 50 µg/cm2 in assay [1] and in assay [2] was 50 to 100% in each case.

As to `FC(F)(F)Oc1ccc(-n2cnc(-c3ccc(/C=N/N=C4\SCN4c4c(Cl)cccc4Cl)cc3)n2)cc1` [Compound 244C], the pest or weed control at 50 µg/cm2, 50 µg/cm2 in assay [1] and in assay [2] was 50 to 100% throughout.

In the case of `Fc1cccc(F)c1N1CS/C1=N\N=C\c1ccc(-c2ncn(-c3ccc(OC(F)(F)F)cc3)n2)cc1` [Compound 245C], the pest or weed control at 50 µg/cm2, 50 µg/cm2 in assay [1] and in assay [2] was 50 to 100% each time.

In the case of `Cc1cccc(Cl)c1N1CS/C1=N\N=C\c1ccc(-c2ncn(-c3ccc(OC(F)(F)F)cc3)n2)cc1` [Compound 246C], the pest or weed control at 50 µg/cm2, 50 µg/cm2 in assay [1] and in assay [2] was 50 to 100% each time.

Turning to `CC(C)c1ccccc1N1CS/C1=N\N=C\c1ccc(-c2ncn(-c3ccc(OC(F)(F)C(F)(F)F)cc3)n2)cc1` [Compound 247C], the pest or weed control at 50 µg/cm2, 50 µg/cm2 in assay [1] and in assay [2] was 50 to 100% each time.

As to `C/C(=N\N=C1/SCN1c1ccccc1C(C)C)c1ccc(-c2ncn(-c3ccc(OC(F)(F)F)cc3)n2)cc1` [Compound 248C], the pest or weed control at 50 µg/cm2, 50 µg/cm2 in assay [1] and in assay [2] was 50 to 100% throughout.
